Measurements reported in patent US6344454B1, “Nonsteroidal gestagens” (Schering Aktiengesellschaft, priority 1997, dated 2002).

Key:
[1] = target: T1, gestagen receptor (Oryctolagus cuniculus, UniProt P06186); assay: gestagen receptor bonding test (cytosol from rabbit uterus homogenate, 3H-progesterone as reference substance); format: binding
T1 construct: using cytosol from rabbit uterus homogenate; from tissue; host or cells: rabbit uterus cytosol
T1 sequence (P06186 1-930): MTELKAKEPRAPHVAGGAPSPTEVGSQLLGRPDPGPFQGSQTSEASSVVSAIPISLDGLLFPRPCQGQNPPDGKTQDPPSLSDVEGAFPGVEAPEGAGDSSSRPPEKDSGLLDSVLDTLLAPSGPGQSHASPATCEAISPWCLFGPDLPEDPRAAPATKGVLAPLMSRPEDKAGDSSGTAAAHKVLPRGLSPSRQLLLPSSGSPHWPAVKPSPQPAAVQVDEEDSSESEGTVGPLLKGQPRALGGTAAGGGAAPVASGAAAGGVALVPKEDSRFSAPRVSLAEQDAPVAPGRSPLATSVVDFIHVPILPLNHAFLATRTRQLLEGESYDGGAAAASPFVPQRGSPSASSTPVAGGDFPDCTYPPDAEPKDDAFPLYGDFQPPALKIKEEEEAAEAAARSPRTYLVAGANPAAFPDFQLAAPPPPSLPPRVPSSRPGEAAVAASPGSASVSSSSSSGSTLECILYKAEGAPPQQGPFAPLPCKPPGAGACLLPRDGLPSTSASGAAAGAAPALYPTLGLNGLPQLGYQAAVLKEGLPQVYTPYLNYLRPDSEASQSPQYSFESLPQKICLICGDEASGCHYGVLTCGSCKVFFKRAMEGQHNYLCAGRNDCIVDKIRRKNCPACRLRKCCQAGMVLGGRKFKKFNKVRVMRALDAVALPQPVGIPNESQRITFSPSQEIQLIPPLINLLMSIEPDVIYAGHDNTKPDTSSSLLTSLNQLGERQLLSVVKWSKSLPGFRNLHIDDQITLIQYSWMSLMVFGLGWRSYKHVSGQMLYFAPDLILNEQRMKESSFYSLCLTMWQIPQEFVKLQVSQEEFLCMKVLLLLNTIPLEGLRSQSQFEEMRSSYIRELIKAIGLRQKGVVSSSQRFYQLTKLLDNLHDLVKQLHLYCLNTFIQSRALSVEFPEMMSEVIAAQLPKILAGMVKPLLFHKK
Text: In the gestagen receptor bonding test on the gestagenic action using cytosol from rabbit uterus homogenate and from ^3H-progesterone as a reference substance, the new compounds show a strong to very strong affinity to the gestagen receptor (see Table 1).

Structure (SMILES) | melting point [°C] | Competition Factor (Reference Substance 3H-Progesterone) [1]
CC(C)(CC(O)(CNc1ccc2c(c1)COC2=O)C(F)(F)F)c1ccccc1 (racemic) [Example 65] | 154 | 0.17
CC(C)Oc1ccc(F)cc1C(C)(C)CC(O)(C(=O)Nc1ccc2c(c1)COC2=O)C(F)(F)F (racemic) [Example 155] | 153 to 154 | 
CC(C)(CC(O)(C(=O)Nc1ccc2c(c1)COC2=O)C(F)(F)F)c1cccs1 (single isomer, unassigned; (+)) [Example 103 (+)-2-thienyl, (+)-5-[2-hydroxy-4-methyl-4-(2-thienyl)-2-trifluoromethyl-valeroylamino]-phthalide] | 166 | 
CC(CC(O)(C(=O)Nc1ccc([N+](=O)[O-])c(C(F)(F)F)c1)C(F)(F)F)c1ccccc1 (stereo not shown) [(*) (Melting point 141-142° C.), reference compound] |  | 17
CC(CC(O)(C(=O)Nc1ccc([N+](=O)[O-])c(C(F)(F)F)c1)C(F)(F)F)c1ccccc1 (stereo not shown) [(*) (Melting point 161° C.), reference compound] |  | 2.0
COc1cccc(C(C)(C)CC(O)(C(=O)Nc2ccc3c(c2)COC3=O)C(F)(F)F)c1 (stereo not shown) [Example 4, 5-[2-Hydroxy-4-(3-methoxyphenyl)-4-methyl-2-trifluoromethyl-valeroylamino]-phthalide] | 129 to 130 | 
Cc1noc(=O)c2ccc(NC(=O)C(O)(CC(C)(C)c3ccccc3)C(F)(F)F)cc12 (stereo not shown) [Example 42, 6-(2-Hydroxy-4-methyl-4-phenyl-2-trifluoromethyl-valeroyl-amino)-4-methyl-2,3-benzoxazin-1-one] | 172 to 173 | 
Cc1noc(=O)c2ccc(NC(=O)C(O)(CC(C)(C)c3ccccc3)C(F)(F)F)cc12 (stereo not shown) [Example 106] | 123 | 0.55
